Measurements as given in paper PMC8708495, “Population Pharmacokinetics and Pharmacodynamic Target Attainment of Isavuconazole against Aspergillus fumigatus and Aspergillus flavus in Adult Patients with Invasive Fungal Diseases: Should Therapeutic Drug Monitoring for Isavuconazole Be Considered as Mandatory as for the Other Mold-Active …” (Pharmaceutics, 2021).
Like-named read-outs stand apart in the source and are kept apart here.

What was measured:
[1] = Therapeutic drug monitoring of isavuconazole Ctrough and Cpeak in hospitalized patients; type: in vivo, human
Description: Isavuconazole treatment was started with a loading dose of 200 mg every 8 h for two days, followed by a maintenance dose of 200 mg daily administered orally or intravenously, at the physician’s discretion. Patients underwent TDM of isavuconazole by assessing plasma Ctrough, which was determined approximately five minutes before the scheduled daily dose, and, whenever possible, also plasma Cpeak, which was determined 2 h after oral administration or 0.5 h after a 1 h intravenous infusion. TDM was assessed firstly after at least 72 h from starting therapy and subsequently reassessed at the discretion of the attending physician.
Blood samples for isavuconazole TDM were immediately delivered to the Institute of Clinical Pharmacology, where they were centrifuged to obtain serum. Isavuconazole serum concentrations were estimated by means of a validated liquid chromatography–tandem mass spectrometry analytic method. Precision and accuracy were assessed by replicate analysis of quality control samples against calibration standards. Intra- and interassay coefficients of variation were always <10%. The LOQ was 0.11 mg/L, and the assay was linear in the range of 0.1–10 mg/L.

[2] = Population pharmacokinetic modeling (NPAG, Pmetrics); type: in vivo, human; details: for clearance / Vd / bioavailability: human, serum, 200 mg daily; for clearance / Vd: other: orally or intravenously; for clearance: read-out: CL, total body clearance (converted); for bioavailability: po, read-out: Fos, oral bioavailability
Description: Population pharmacokinetics were conducted using the nonparametric adaptive grid approach (NPAG) and the algebraic model solver included in the Pmetrics package (Version 1.5.0, Laboratory of Applied Pharmacokinetics and Bioinformatics, Los Angeles, CA, USA) of R [22]. One- and two-compartment models with first-order absorption and first-order elimination from the central compartment were developed. Maximum a posteriori (MAP)-Bayesian estimates of isavuconazole clearance (CL) and volume of distribution (V) were determined in each patient.
Influence of covariates was assessed by including the biologically plausible clinical covariates into the basic model. Covariate analysis was conducted by means of the Pmetrics function “PMstep” and by linear regression between the median MAP-Bayesian estimates of isavuconazole pharmacokinetic parameters and each tested covariate.
Model comparison was performed by calculating the objective function value (OFV) and the Akaike information criterion (AIC) value. An improvement between the two competitive models was considered statistically significant when the decrease in the OFV was at least 3.84 points. For both the population predictions and the individual predictions, model fit was assessed by evaluating the coefficient of determination of the linear regression of the observed versus predicted concentration plot. Internal model validation was performed by means of a visual predictive check (VPC) with n = 1000 simulations. The normalized prediction distribution errors (NPDE) were also calculated. The VPC plot compares the observed concentrations with model-predicted concentration-time profiles. A model is reliable when ≥95% of the observed concentrations reside within the 95% CI of the model prediction. Assay laboratory error was estimated by means of the interday variability assay data. A first-order polynomial regression was used between drug concentrations and the standard deviation of the observations (C0 = 0.006, C1 = 0.189). Extra process noise was captured with a gamma (G) model (G = 2).

invasive fungal disease = assay: Clinical outcome at end of isavuconazole treatment; type: in vivo, human
Description: This was a monocentric, retrospective, observational study conducted among patients who were treated with isavuconazole because of IFD between September 2017 and November 2020 at the Azienda Sanitaria Universitaria Friuli Centrale of Udine, Italy.
(§1) The following demographic and clinical data were retrieved from each patient’s medical record: age, gender, weight, height, type and site of infection and microbiological isolate. Patient comedications, along with serum albumin, total bilirubin, ALT, AST and γ-GT concentrations, were recorded at each TDM assessment. Drug-induced liver injury was defined as mild, moderate, severe or fatal according to the EASL Clinical Practice Guidelines for drug-induced liver injury. Drug cotreatments were accurately reviewed by a clinical pharmacologist with the intent of assessing the eventual influence on isavuconazole clearance by CYP3A4 inhibitors and/or inducers. CYP3A4 inhibitors and/or inducers were classified as strong, moderate and mild according to the FDA [19] and to the DrugBank database. Patient outcome at end of therapy was defined as successful (in case of clinical, radiological and/or mycological resolution or improvement of infection) or failed according to [21].

[3] = Safety and liver enzyme monitoring during isavuconazole therapy; type: in vivo
Description: as §1

[4] = Mixed-effect linear regression of clinical variables associated with isavuconazole Ctrough; type: in vivo, human
Description: Data were presented as median and interquartile range (IQR) for continuous variables or as count and percentage for categorical variables in the descriptive statistics. Univariate and multivariate linear mixed-effect models (with a random effect to account for correlation among repeated measurements within the same subject) were performed to identify clinical independent predictors of isavuconazole Ctrough. All variables that were associated with a p ≤ 0.20 at univariate analysis were subsequently included in the multivariate model. All statistical and graphical analyses were performed with R version 3.4.4 (R Foundation for Statistical Computing, Vienna, Austria). Data were considered statistically significant when p < 0.05.

[5] = cited from earlier work
[6] = design: method as in PMID 26598096; details: cited from earlier work
A. fumigatus [7] = tested on: A. fumigatus; design: method as in PMID 25753636; details: EUCAST MIC method; associated with a 90% survival rate against disseminated aspergillosis by wild-type and azole-resistant A. fumigatus; cited from earlier work
A. fumigatus [8] = tested on: A. fumigatus; design: method as in earlier work; details: EUCAST; cited from earlier work
A. flavus = tested on: A. flavus; design: method as in earlier work; details: EUCAST; cited from earlier work
[9] = cited from earlier work; remark: listed apart in the source
[10] = Mean, final population pharmacokinetic model
[11] = Median, final population pharmacokinetic model

C[C@@H](c1nc(-c2ccc(C#N)cc2)cs1)[C@](O)(Cn1cncn1)c1cc(F)ccc1F [isavuconazole, Isavuconazole]
proportion of measured Ctrough <1.0 mg/L ([1]; 2 of 175 Ctrough): 1.1% | proportion of measured Ctrough >5.13 mg/L ([1]; 50 of 175 Ctrough): 28.6% | Cpeak ([1]; median of 24 Cpeak, patients n = 50, dose 200 mg): 4.67 mg/L | Ctrough ([1]; median of 175 Ctrough, patients n = 50, dose 200 mg): 3.68 mg/L | Ka, first-order transfer rate constant of absorption [2, 10]: 22.64 h⁻¹ | Vp, volume of distribution of the peripheral compartment [2, 10]: 735.24 L | CL, total body clearance [2, 11]: 1.33 L/h | Ka, first-order transfer rate constant of absorption [2, 11]: 22.64 h⁻¹ | Vp, volume of distribution of the peripheral compartment [2, 11]: 385.93 L | clearance [2, 10]: 25.3 mL/min | Vd ([2]; Mean, final population pharmacokinetic model, read-out: V, volume of distribution of the central compartment): 89.5 L | clearance [2, 11]: 25.3 mL/min | Vd ([2]; Median, final population pharmacokinetic model, read-out: V, volume of distribution of the central compartment): 103 L | Vd ([2]; population pharmacokinetic model, read-out: median volume of distribution): 489 L | bioavailability [2, 10]: 95% | bioavailability [2, 11]: 100% | interindividual variability on CL ([2]; population pharmacokinetic model): 64% | lack of significant improvement with isavuconazole treatment (invasive fungal disease; 3/47): 6.4% | Dead for other reasons (invasive fungal disease; 3/47, progression of underlying oncohematological disease): 6.4% | Treatment failure (invasive fungal disease; clinical outcome at end of treatment, Table 1 (12/47)): 25.5% | Successful treatment (invasive fungal disease; clinical outcome at end of treatment, patients who completed treatment (n = 47)): 68.1% | failure (invasive fungal disease; clinical outcome, text (9/47)): 19.2% | signs and/or symptoms of isavuconazole toxicity during therapy ([3]; 50 patients): No patient experienced signs and/or symptoms of isavuconazole toxicity during therapy | ALT in intercurrent mild hepatotoxicity ([3]; one patient, resolved spontaneously without isavuconazole withdrawal): up to 261 IU/L | alanine-aminotransferase (ALT), median (min–max) ([3]; patients on isavuconazole): 21.0 (3.0–261.0) UI/L | aspartate-aminotransferase (AST), median (min–max) ([3]; patients on isavuconazole): 20.0 (5.0–249.0) UI/L | gamma-glutamyltransferase (γ-GT), median (min–max) ([3]; patients on isavuconazole): 70.0 (12.0–642.0) IU/L | Unstandardized β-Coefficient (95% CI) for Ctrough ([4]; Multivariate Analysis, Cotreatment with CYP3A4 inhibitors): 2.154 (3.248–1.060) | Unstandardized β-Coefficient (95% CI) for Ctrough ([4]; Multivariate Analysis, Dose/kg daily (mg/kg)): 0.402 (0.819−0.016) | Unstandardized β-Coefficient (95% CI) for Ctrough ([4]; Multivariate Analysis, γ-GT (IU/L)): −0.0004 (0.002−0.002) | Unstandardized β-Coefficient (95% CI) for Ctrough ([4]; Univariate Analysis, ALT (IU/L)): −0.001 (0.007−0.009) | Unstandardized β-Coefficient (95% CI) for Ctrough ([4]; Univariate Analysis, AST (IU/L)): −0.008 (-0.002–0.004) | Unstandardized β-Coefficient (95% CI) for Ctrough ([4]; Univariate Analysis, Albumin (g/L)): 0.034 (0.087−0.019) | Unstandardized β-Coefficient (95% CI) for Ctrough ([4]; Univariate Analysis, Cotreatment with CYP3A4 inhibitors): 2.39 (3.337–1.443) | Unstandardized β-Coefficient (95% CI) for Ctrough ([4]; Univariate Analysis, Days from starting therapy (days)): 0.001 (0.007−0.005) | Unstandardized β-Coefficient (95% CI) for Ctrough ([4]; Univariate Analysis, Dose/kg daily (mg/kg)): 0.815 (1.164–0.466) | Unstandardized β-Coefficient (95% CI) for Ctrough ([4]; Univariate Analysis, Gender (male vs. female)): 0.099 (6.986−6.788) | Unstandardized β-Coefficient (95% CI) for Ctrough ([4]; Univariate Analysis, Total bilirubin (mg/dL)): −0.346 (0.034−0.726) | Unstandardized β-Coefficient (95% CI) for Ctrough ([4]; Univariate Analysis, Weight (kg)): −0.029 (0.006−0.064) | Unstandardized β-Coefficient (95% CI) for Ctrough ([4]; Univariate Analysis, γ-GT (IU/L)): 0.003 (0.005–0.001) | reduction in Ctrough ([4]; associated with patient age): 3.7% | increase in isavuconazole Ctrough ([4]; cotreatment with mild/moderate CYP3A4 inhibitors): more than 2 fold | dose up to which the pharmacokinetics are linear [5]: up to 600 mg daily | elimination half-life [5]: 80 to 130 h | plasma drug accumulation ratio between start and end of therapy ([5]; multiple-dose study, 32 healthy volunteers, IV and oral): 3.8–5.2 | CL ([5]; observed in SOT patients): 4.28 L/h | interindividual variability on CL ([5]; reported by previous analysis): 43–63% | CL ([5]; reported in clinical trials): 2.2 to 2.5 L/h | plasma protein binding [6]: > 98% | AUC24 h/MIC pharmacodynamic threshold of efficacy (A. fumigatus [7]): > 33.4 | clinical breakpoint (A. fumigatus [8]): 1 mg/L | clinical breakpoint (A. flavus): 1 mg/L | cut-off value for toxicity (Ctrough) ([9]; ROC analysis, mild adverse events): 5.13 mg/L | Median isavuconazole concentration on days when side effects occurred [9]: 6.65 mg/L | Median isavuconazole concentration when side effects were not present [9]: 4.09 mg/L | isavuconazole levels associated with hepatic veno-occlusive disease ([9]; in vivo): > 10 mg/L | linear increase of concentration for each day of treatment ([9]; linear mixed model, 264 Ctrough samples from 19 patients): 0.032 mg/L
